Reference: patent US20230115176A1 (Ra Pharmaceuticals, Inc., priority 2019, published 2023)

Each compound was assayed against T1, Human C5 (Homo sapiens, UniProt P01031) (assay: Red blood cell (RBC) hemolysis assay, luminescent (Example 13, Table 22)). Conditions: sheep EA cells, […] C5-depleted human serum, 0.5 nM human C5, 1 hour 37° C., luminescence.
T1 construct: purchased Complement Technology
Type: cell-based
Excerpt: Compound CU0136 is a racemic mixture of Compound CU0186 and CU0187. Numbers in parenthesis following compound numbers indicate alternate enantiomers (as distinguished by retention time during chromatographical separation).
Also: 1.5% C5-depleted human serum.

T1 sequence (P01031 19-1676): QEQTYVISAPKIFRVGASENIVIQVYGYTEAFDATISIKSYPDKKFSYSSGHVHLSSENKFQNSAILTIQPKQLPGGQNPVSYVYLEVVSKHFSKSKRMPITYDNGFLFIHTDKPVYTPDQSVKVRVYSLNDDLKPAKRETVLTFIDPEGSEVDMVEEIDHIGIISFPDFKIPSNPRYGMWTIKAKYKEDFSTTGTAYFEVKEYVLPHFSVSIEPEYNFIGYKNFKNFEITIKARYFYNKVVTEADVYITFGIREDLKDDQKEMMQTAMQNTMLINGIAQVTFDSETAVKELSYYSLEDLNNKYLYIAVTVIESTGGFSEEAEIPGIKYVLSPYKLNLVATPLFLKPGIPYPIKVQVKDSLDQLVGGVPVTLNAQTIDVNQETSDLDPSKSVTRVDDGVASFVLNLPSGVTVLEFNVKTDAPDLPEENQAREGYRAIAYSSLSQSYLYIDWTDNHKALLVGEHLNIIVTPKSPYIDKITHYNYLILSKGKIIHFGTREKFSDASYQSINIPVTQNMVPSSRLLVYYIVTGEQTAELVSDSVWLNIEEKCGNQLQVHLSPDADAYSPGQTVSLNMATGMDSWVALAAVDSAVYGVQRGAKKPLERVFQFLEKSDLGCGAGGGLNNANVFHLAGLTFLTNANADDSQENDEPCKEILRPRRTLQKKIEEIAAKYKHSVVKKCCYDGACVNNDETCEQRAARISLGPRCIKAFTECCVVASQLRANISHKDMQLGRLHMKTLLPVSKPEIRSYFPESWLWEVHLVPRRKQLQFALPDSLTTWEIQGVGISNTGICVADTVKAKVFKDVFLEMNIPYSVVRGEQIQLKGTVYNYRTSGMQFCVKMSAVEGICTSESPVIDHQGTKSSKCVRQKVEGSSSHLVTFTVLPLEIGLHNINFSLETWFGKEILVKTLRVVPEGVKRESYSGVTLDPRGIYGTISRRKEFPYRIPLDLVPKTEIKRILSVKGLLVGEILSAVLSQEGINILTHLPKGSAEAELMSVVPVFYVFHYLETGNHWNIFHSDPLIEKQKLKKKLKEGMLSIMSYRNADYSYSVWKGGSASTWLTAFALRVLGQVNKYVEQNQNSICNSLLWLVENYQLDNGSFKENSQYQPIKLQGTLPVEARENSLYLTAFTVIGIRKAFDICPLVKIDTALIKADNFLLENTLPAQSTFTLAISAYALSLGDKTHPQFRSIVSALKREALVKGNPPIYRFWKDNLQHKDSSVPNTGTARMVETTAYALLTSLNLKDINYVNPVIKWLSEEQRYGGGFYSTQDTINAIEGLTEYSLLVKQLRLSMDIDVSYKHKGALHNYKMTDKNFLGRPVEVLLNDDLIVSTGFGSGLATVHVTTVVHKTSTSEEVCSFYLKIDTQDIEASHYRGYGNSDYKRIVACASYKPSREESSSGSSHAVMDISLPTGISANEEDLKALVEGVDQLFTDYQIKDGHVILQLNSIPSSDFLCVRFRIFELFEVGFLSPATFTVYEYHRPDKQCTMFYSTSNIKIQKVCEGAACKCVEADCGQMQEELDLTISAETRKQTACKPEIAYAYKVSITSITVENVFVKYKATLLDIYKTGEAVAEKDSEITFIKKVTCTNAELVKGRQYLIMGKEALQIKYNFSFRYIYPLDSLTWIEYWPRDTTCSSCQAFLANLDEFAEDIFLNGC

SMILES	IC50 [nM]
COc1cc(CC(=O)N(C)C)ccc1CN1CCCN(c2ccc(OC)c(OCc3ccccc3)c2)C1=O [CU0199]	370
CCCCCOc1cc(N2CCCN(Cc3cc(OC)cc(-c4cnn(C5CCN(C)CC5)c4)c3)C2=O)ccc1OC [CU0158]	27.8
CCCCCOc1cc(N2CCCN(Cc3ccc(Cc4nnn[nH]4)cc3OC)C2=O)ccc1OC [CU0209]	55.2
CCCCCOc1cc(N2CCCN(Cc3ccc(Br)cc3OC)C2=O)ccc1OC [CU0153]	233
CCC(F)(F)CCOc1cc(N2CCCN(Cc3ccc(CC(=O)N(C)C)cc3OC)C2=O)ccc1OC [CU0171]	45.1
CCCCCOc1cc(N2CCCN(Cc3ccc(C)c4c3ccn4CC(=O)N(C)C)C2=O)ccc1OC [CU0229]	88.9
CCCCCOc1cc(N2CCCN(Cc3ccnc4c3ccn4CC(=O)N3CCCOCC3)C2=O)ccc1OC [CU0053]	23.3
CCCCCOc1cc(N2CCCN(Cc3ccc(F)c4c3ccn4CC(=O)N(C)C)C2=O)ccc1OC [CU0230]	60.5
C#CCCCOc1cc(N2CCCN(Cc3cc(F)ccc3OC)C2=O)ccc1OC [CU0179]	156
CCC#CCOc1cc(N2CCCN(Cc3cc(F)ccc3OC)C2=O)ccc1OC [CU0169]	82.4
CCCCCOc1cc(N2CCCN(Cc3ccnc4c3ccn4CCC3CCOCC3)C2=O)ccc1OC [CU0249]	386
CCCCCOc1cc(N2CCCN(Cc3ccnc4c3ccn4CC3=NCCN3C)C2=O)ccc1OC [CU0251]	34
CCCCCOc1cc(N2CCCN(Cc3ccc(CCOCCN4CCCC4)cc3OC)C2=O)ccc1OC [CU0189]	413
CCCCCOc1cc(N2CCCN(Cc3ccc(CC(=O)NC4CCN(C(C)C)CC4)cc3Cl)C2=O)ccc1OC [CU0135]	14.5
COc1ccc(N2CCCN(Cc3ccnc4c3ccn4CC(=O)N(C)C)C2=O)cc1OCCCC(C)(F)F [CU0262]	34.6
CCCCCOc1cc(N2CCCN(Cc3ccc(CC(=O)N4CCCC4)cc3OC)C2=O)ccc1OC [CU0006]	19.5
CCCCCOc1cc(N2CCCN(Cc3cccc(C4=CCNCC4)c3F)C2=O)ccc1OC [CU0128]	60.6
COc1cccc(COc2cc(N3CCCN(Cc4cc(F)ccc4OC)C3=O)ccc2OC)c1 [CU0227]	362
CCCCCOc1cc(N2CCCN(Cc3ccc(CNC(=O)C4CN(C)C4)cc3OC)C2=O)ccc1OC [CU0191]	87.9
CCCCCOc1cc(N2CCCN(Cc3ccc(C(O)c4nccn4C)cc3OC)C2=O)ccc1OC (stereo not shown) [CU0200]	8.9
CCCCCOc1cc(N2CCCN(Cc3ccc(CCn4cnnn4)cc3OC)C2=O)ccc1OC [CU0148]	36

SMILES	IC50 [nM]
CCCCCOc1cc(N2CCCN(Cc3ccc(F)c(-c4cnn(C5CCN(C)CC5)c4)c3)C2=O)ccc1OC [CU0150]	87.6
CCCCCOc1cc(N2CCCN(Cc3cccc(N4CCC(C(C)(C)O)C4)c3F)C2=O)ccc1OC (stereo not shown) [CU0131]	151
CCCCCOc1cc(N2CCCN(Cc3cccc4c3cc(C)n4CC(=O)N(C)C)C2=O)ccc1OC [CU0238]	61
COc1cc(CC(=O)NC2CCN(C(C)=O)C2)ccc1CN1CCCN(c2ccc(OC)c(OCCCC(C)(F)F)c2)C1=O (stereo not shown) [CU0142]	18.3
COc1ccc(F)cc1CN1CCCN(c2ccc(OC)c(OCc3cccc(C)c3)c2)C1=O [CU0181]	119
CCCCCOc1cc(N2CCCN(Cc3cccc4c3ccn4Cc3cccnc3)C2=O)ccc1OC [CU0023]	20.7
CCCCCOc1cc(N2CCCN(Cc3ccc(CC(=O)N(C)C)cc3OC)C2=O)ccc1C1CC1 [CU0113]	54.8
COc1cc(CC(=O)N2CCCOCC2)ccc1CN1CCCN(c2ccc(OC)c(OCCCC(C)(F)F)c2)C1=O [CU0146]	12.5
CCCCCOc1cc(N2CCCN(Cc3cccc(-c4cnn(C(C)OCC)c4)c3F)C2=O)ccc1OC (stereo not shown) [CU0125]	73.6
CCCCCOc1cc(N2CCCN(Cc3ccc(CNC(=O)OCC)cc3OC)C2=O)ccc1OC [CU0192]	19.1
CCCCCOc1cc(N2CCCN(Cc3cccc(N4CCN(C5COC5)CC4)c3F)C2=O)ccc1OC [CU0130]	147
CCC(F)(F)CCOc1cc(N2CCCN(Cc3ccc(CC(=O)N4CCO[C@H](COC)C4)cc3OC)C2=O)ccc1OC [CU0197]	31.6
CCCCCOc1cc(N2CCCN(Cc3ccnc4c3ccn4CC3CCCO3)C2=O)ccc1OC (stereo not shown) [CU0248]	101
CCCCCOc1cc(N2CCCN(C(C)c3ccnc4c3ccn4C3CCN(C)C3=O)C2=O)ccc1OC (stereo not shown) [CU0040(2)]	76.3
CCCCCOc1cc(N2CCCN(Cc3cccc4c3ccn4C3CCN(C4CC4)C3=O)C2=O)ccc1OC (stereo not shown) [CU0241]	10.7
CCCCCOc1cc(N2CCCN(Cc3ccc(CCn4ccnc4)cc3OC)C2=O)ccc1OC [CU0139]	91.7
COc1ccc(N2CCCN(Cc3cccc4[nH]ccc34)C2=O)cc1OCCCC(C)(F)F [CU0240]	42.2
CCCCCOc1cc(N2CCCN(Cc3ccc(F)cc3OC)C2=O)ccc1OC [CU0165]	36
CCCCCOc1cc(N2CCCN(Cc3ccc(CCn4ccnn4)cc3OC)C2=O)ccc1OC [CU0147]	46.4
COc1ccc(F)cc1CN1CCCN(c2ccc(OC)c(OCCCC(F)(F)C(F)(F)F)c2)C1=O [CU0195]	49
CCCCCOc1cc(N2CCN(Cc3ccnc4c3ccn4CC(=O)N(C)C)C2=O)ccc1C1CC1 [CU0034]	1230

SMILES	IC50 [nM]
CCCCCOc1cc(N2CCCN(Cc3ccc(Cc4ncco4)cc3OC)C2=O)ccc1OC [CU0208]	59.1
CCCCCOc1cc(N2CCCN(C(C)c3ccnc4c3ccn4C3CCN(C)C3=O)C2=O)ccc1OC (stereo not shown) [CU0040(1)]	66.5
COc1ccc(F)cc1CN1CCCN(c2ccc(OC)c(OCCC[C@H]3C[C@@H]3C)c2)C1=O [CU0205]	5.1
COc1ccc(F)cc1CN1CCCN(c2ccc(OC)c(OCC[C@@H]3C[C@@H]4CC[C@H]3C4)c2)C1=O [CU0184]	32.4
COc1cc(Cl)ccc1CN1CCCN(c2ccc(OC)c(OCc3ccccc3)c2)C1=O [CU0162]	2870
CCCCCOc1cc(N2CCCN(Cc3ccc(CN4CCOCC4)cc3OC)C2=O)ccc1OC [CU0172]	37.3
CCCCCOc1cc(N2CCN(C[C@@H](O)c3ccccc3)C2=O)ccc1OC [CU0016]	2620
COc1ccc(F)cc1CN1CCCN(c2ccc(OC)c(OCc3cccc(C(F)(F)F)c3)c2)C1=O [CU0223]	400
CCCCCOc1cc(N2CCCN(Cc3cc(C)cc4c3ccn4CC(=O)N(C)C)C2=O)ccc1OC [CU0236]	203
CCC(F)(F)CCOc1cc(N2CCCN(Cc3ccc(CC(=O)N4CCCOCC4)cc3OC)C2=O)ccc1OC [CU0174]	36.7
COc1ccc(F)cc1CN1CCCN(c2ccc(OC)c(OCCC3CCCC3)c2)C1=O [CU0185]	183
CCCCCOc1cc(N2CCCN(Cc3ccnc4c3ccn4CCN3CCOC3=O)C2=O)ccc1OC [CU0250]	217
CCCCCOc1cc(N2CCCN(Cc3cccc(N4CCN(C)CC4)c3F)C2=O)ccc1OC [CU0133]	82.2
CCCCCOc1cc(N2CCCN(Cc3ccnc4c3ccn4CC(=O)N3CCCOCC3)C2=O)ccc1C1CC1 [CU0054]	117
COc1ccc(F)cc1CN1CCCN(c2ccc(OC)c(OCC3CCCC3)c2)C1=O [CU0168]	232
CCCCCOc1cc(N2CCCN(Cc3ccc(CCOC(C)C)cc3OC)C2=O)ccc1OC [CU0203]	30
CCCCCOc1cc(N2CCN(Cc3ccnc4c3ccn4CC(=O)N3CCCOCC3)C2=O)ccc1OC [CU0052]	61.4
COc1ccc(F)cc1CN1CCCN(c2ccc(OC)c(OCC3CC4(CCC4)C3)c2)C1=O [CU0198]	70.1
CCCCCOc1cc(N2CCCN(Cc3cccc4c3ccn4CC(=O)N(C)C)C2=O)ccc1C1CC1 [CU0026]	62.5
CCCCCOc1cc(N2CCCN(Cc3ccc(CN(C)C(=O)OC)cc3OC)C2=O)ccc1OC [CU0149]	24.1
COc1ccc(N2CCCN(Cc3ccnc4c3ccn4CC(=O)N(C)C)C2=O)cc1OCCC1CCCC1 [CU0259]	75

SMILES	IC50 [nM]
COc1ccc(F)cc1CN1CCCN(c2ccc(OC)c(OCCc3ccccc3C)c2)C1=O [CU0215]	34.1
CCCCCOc1cc(N2CCCN(Cc3ccc(CC(=O)O)cc3OC)C2=O)ccc1OC [CU0102]	53.7
CCCCCOc1cc(N2CCCN(Cc3cc(F)cc4c3ccn4CC(=O)N(C)C)C2=O)ccc1OC [CU0237]	43.9
CCCCCOc1cc(N2CCCN(Cc3cccc(-c4cnn(C5COC5)c4)c3F)C2=O)ccc1OC [CU0119]	52
COc1ccc(N2CCCN(Cc3ccnc4c3ccn4CC(=O)N(C)C)C2=O)cc1OCC[C@@H]1C[C@@H]2CC[C@H]1C2 [CU0253]	41.9
COc1ccc(F)cc1CN1CCCN(c2ccc(OC)c(OCCc3ccccc3)c2)C1=O [CU0193]	45
COc1ccc(F)cc1CN1CCCN(c2ccc(OC)c(OCc3ccccc3C)c2)C1=O [CU0182]	936
CCCCCOc1cc(N2CCCN(Cc3cccc4nc(CC)oc34)C2=O)ccc1OC [CU0067]	946
CCCCCOc1cc(N2CCCN(Cc3ccc(CCOC(=O)N4CCCC4)cc3OC)C2=O)ccc1OC [CU0138]	55.4
CCCCCOc1cc(N2CCCN(Cc3ccc(CCO)cc3OC)C2=O)ccc1OC [CU0159]	98.8
CCCCCOc1cc(N2CCCN(Cc3ccc(CC(=O)NC4CCN(C(C)=O)C4)cc3Cl)C2=O)ccc1OC (stereo not shown) [CU0134]	16.1
COc1ccc(F)cc1CN1CCCN(c2ccc(OC)c(OCCc3ccc(C)cc3)c2)C1=O [CU0219]	221
CCCCCOc1cc(N2CCCN(Cc3ccc(CC#N)cc3OC)C2=O)ccc1OC [CU0210]	32.9
CCCCCOc1cc(N2CCCN(Cc3cccc(N4CCOCC4)c3F)C2=O)ccc1OC [CU0132]	301
COc1ccc(F)cc1CN1CCCN(c2ccc(OC)c(OCc3ccccc3)c2)C1=O [CU0164]	592
COc1ccc(F)cc1CN1CCCN(c2ccc(OC)c(OCCc3cccc(C(F)(F)F)c3)c2)C1=O [CU0220]	254
COc1cc(F)ccc1CN1CCCN(c2ccc(OC)c(OCc3ccccc3)c2)C1=O [CU0163]	1000
CCCCCOc1cc(N2CCCN(Cc3ccnc4c3ccn4CC(=O)N3CCCOCC3)C2=O)ccc1OC [CU0228]	21.8
CCCCCOc1cc(N2CCCN([C@@H](C)c3cccc4c3ccn4CC(=O)N(C)C)C2=O)ccc1OC [CU0233]	4260
